Patent publication US8431530B2, “Compositions and methods for treating aids or cancer by inhibiting the secretion of microparticles” (priority 2009, dated 2013)

Key:
R7; Magi/CXCR4 cells = assay: Magi assay of viral infectivity, supernatants of Jurkat cells; type: cell-based, HIV; settings: for blue staining (productively infected) Magi/CXCR4 cells: 48 hour conditioned supernatant of Jurkat cells transfected with R7 and peptide, X-Gal
Protocol: Magi/CXCR4 cells were exposed to 48 hour conditioned supernatants from Jurkat cells, HEK293 cells, THP-1 monocytes, or U937 monocytes transfected with either R7 viral DNA/SMRwt peptide or R7 viral DNA/SMRmt peptide. These cells were then fixed and stained with X-Gal. […] Cells productively infected with R7 are easily visualized under light microscopy by their blue nuclear staining. Magnification ×20. […] This is indicative of virus in the conditioned supernatant from the R7/negative control peptide treated cells and no virus in conditioned supernatant from the R7/antagonist treated cells.
These Magi cultures were quantitated for blue staining cells. The data was plotted as a function of time post-transfection. […] This is possibly due to antagonism of trafficking of viral component(s) to the cytoplasmic membrane. Ultimately this would shutdown the HIV infection and block progression to AIDS.

[1] = system: HIV-1 Nef-GFP secretion, cell line H; assay: HIV-1 Nef-GFP induced secretion, fluorescent plate reader assay; type: cell-based; settings: for SMRmt/SMRwt ratio of secretion: HIV-1 Nef-GFP; for Increase in Secretion (relative to untransfected cells), exp condition/UT: HIV-1 Nef-GFP (sM1 column head prints GFP/sM1)
[2] = system: NefGFP release from HEK293 cells; assay: Nef-GFP co-transfection secretion assay, GFP fluorescence of supernatant; type: cell-based; settings: HEK293, 0.5 μg Nef-GFP + 0.5 μg peptide, Chariot, 48 h; relative to NefGFP+sM1 (100%)
Protocol: Therefore, a set of co-transfection experiments were performed. HEK293 cells were co-transfected with 0.5 μg of pQBI-HIV Nef-GFP (expresses wild type Nef protein) and either 0.5 μg of HIV-1 Nef SMRwt or SMRmut peptide or sM1 peptide (a totally random control peptide, ALAETCQNAWA (SEQ ID NO: 7)) with Chariot. Briefly, the wild-type Nef-GFP clone and the SMR peptides were complexed with Chariot reagent for 30 minutes at RT. The DNA/peptide/Chariot complex was added to HEK293 cells in serum-free media, and the cells were plated. Following incubation for 2 hours at 37° C., media with serum was added to the dish, and the cells were incubated at 37° C. for 48 h. The media was then collected and assayed for secretion using a spectrofluorimeter. The conditioned supernatants from these cultures were assayed for GFP fluorescence by plate reader.

pNL4-3 in Jurkat cells = assay: p24 assay of virion production after pNL4-3 co-transfection; type: cell-based, HIV; settings: for amount of virus production (in words, Table I): 96 hours, pNL4-3 co-transfection; for p24 / Effect (a/b): Jurkat; for p24: co-transfected with pNL4-3; for Effect (a/b): p24 of sample / p24 of pNL4-3 + sM1
Protocol: I. Jurkat cells were co-transfected as shown below: (transfection efficiency 30-40% by Chariot Kit):
(§1) pNL4-3 is a clone containing the viral genome. Transfection into cells allows expression of the viral genome and ultimately virion formation and release. The amount of virion production in the extracellular supernatant is measured through p24 protein (viral protein). Samples were collected at 48 hours and 96 hours post-infection.
(§2) At 48 hr postinfection two plates in each group were removed and analyzed by: • a. p24 assay • b. Nef assay • c. Infectivity assay • At 96 hr postinfection the other two plates in each group were removed and analyzed by: • a. p24 assay • b. Nef assay • c. Infectivity assay

[3] = system: R7 in Jurkat cells, HEK293 cells, THP-1 monocytes, U937 monocytes; assay: Western blot of Nef and p24 in supernatant pellets; type: cell-based, HIV; settings: R7 co-transfection, HEK293, THP-1, U937, 400,000×g supernatant pellets
Protocol: (§3) At 2 hours, 3 days, 6 days, 9 days, 13 days, 15 days, 17 days, 20 days, 23 days, 27 days and 36 days post-transfection, 0.5 ml supernatant were collected from each plate, mixed with 0.5 ml fresh media and analyzed by p24 ELISA assay. 1.5 ml of supernatant were collected from each plate and spun in a TLA100 rotor at 400,000×g for 1 hour to create the pellets. The pellets were used for Western blot analysis with p24 mAb and Nef mAb.
No effect is observed for the negative control peptide (NefSMRmut). […] This is possibly due to antagonism of trafficking of viral component(s) to the cytoplasmic membrane. Ultimately this would (i) shutdown the HIV infection and (ii) block progression to AIDS.

pNL4-3 in 293 cells = assay: p24 assay of virion production after pNL4-3 co-transfection; type: cell-based, HIV; settings: for p24: co-transfected with pNL4-3; for Effect (a/b): p24 of sample / p24 of pNL4-3 + sM1
Protocol: as §1, §2

R7 in Jurkat cells = assay: p24 ELISA of supernatant after R7 co-transfection; type: cell-based, HIV
Protocol: Jurkat cells, HEK293 cells, THP-1 monocytes and U937 monocytes were co-transfected with either R7 […] Nef SMR wt (antagonist) or with R7+Nef SMR mt (nonfunctional antagonist) by Chariot™ Kit. The transfection efficiency was 30-40%.
R7 is a clone containing the viral genome. Transfection into cells allows expression of the viral genome and ultimately virion formation and release. The amount of virion production in the extracellular supernatant is measured through p24 protein (viral protein).
as §3

Row | Substance | blue staining (productively infected) Magi/CXCR4 cells (R7; Magi/CXCR4 cells) | SMRmt/SMRwt ratio of secretion [1] | Increase in Secretion (relative to untransfected cells), exp condition/UT [1] | release of NefGFP into the extracellular supernatant (GFP fluorescence) [2] | amount of virus production (in words, Table I) (pNL4-3 in Jurkat cells) | p24 (pNL4-3 in Jurkat cells; 48 hr) | Effect (a/b) (pNL4-3 in Jurkat cells; 48 hr) | p24 (pNL4-3 in Jurkat cells; 96 hr) | Effect (a/b) (pNL4-3 in Jurkat cells; 96 hr) | amount of virus production (Western blot of p24 and Nef) [3] | p24 (pNL4-3 in 293 cells; 293, 48 hr) | Effect (a/b) (pNL4-3 in 293 cells; 293, 48 hr) | p24 (pNL4-3 in 293 cells; 293, 96 hr) | Effect (a/b) (pNL4-3 in 293 cells; 293, 96 hr) | time post transfection at which p24 concentration increased (R7 in Jurkat cells) | numbers of infected Magi cells as a function of time post-transfection (R7; Magi/CXCR4 cells; supernatant from transfected Jurkat cells)
1 | H2N-AGFPVAAAGFPVDYKDDDDK-OH (H-AGFPVAAAGFPVDYKDDDDK-OH) [SMRmt] | many blue staining cells | 24.8y | 57.04x | no effect | no effect | 0 pg/mL | 1 | 15 pg/mL | 0.5 | No effect | 30 pg/mL | 0.67 | 1125 pg/mL | 1.17 | 3 days | –
2 | H-VGFPVAAVGFPVDYKDDDDK-OH [SMRwt] | drastically reduced numbers of blue staining cells | 1.0y | 2.3x | antagonizes the release of NefGFP into the extracellular supernatant | reduced drastically | 0 pg/mL | 1 | 0 pg/mL | <0.033 | drastically reduced to zero or close to zero | 90 pg/mL | 2 | 345 pg/mL | 0.359 | 13 days | significantly reduced
